Where two headings read alike, the source gives them in different places. Values belong to the compound of their own block, whether it stands above or below them.
Key:
[1] = target: T1, neurokinin-1 (NK-1) receptor (Homo sapiens, UniProt P25103); assay: NK-1 Binding assay ([125I] Substance P competition, U373 cell membranes); conditions: U373 membranes, [125I] Substance P displacement, read-out: NK-1 IC50
T1 construct: a human glioblastoma-astrocytoma cell line that endogenously expresses the neurokinin-1 (NK-1) receptor; endogenous in cells; host or cells: U373 human glioblastoma-astrocytoma cells (membranes)
T1 sequence (P25103 whole entry): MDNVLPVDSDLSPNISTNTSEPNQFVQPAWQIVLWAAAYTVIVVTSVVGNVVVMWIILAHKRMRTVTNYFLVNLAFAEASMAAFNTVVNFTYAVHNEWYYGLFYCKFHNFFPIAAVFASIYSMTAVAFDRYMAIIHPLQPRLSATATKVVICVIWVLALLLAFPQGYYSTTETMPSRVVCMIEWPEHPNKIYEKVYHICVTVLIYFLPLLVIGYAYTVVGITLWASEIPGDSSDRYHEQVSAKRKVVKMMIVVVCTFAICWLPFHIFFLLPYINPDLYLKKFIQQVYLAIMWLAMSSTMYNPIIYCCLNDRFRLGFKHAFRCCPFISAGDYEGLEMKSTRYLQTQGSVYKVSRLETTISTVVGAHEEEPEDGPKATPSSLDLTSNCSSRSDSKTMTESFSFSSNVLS
Method in brief: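 Membranes were prepared from U373 human glioblastoma-astrocytoma cells, which express NK-1 endogenously, in 50 mM Tris-HCl pH 7.4 with 3 mM MnCl2, BSA and protease inhibitors. IC50 taken as the midpoint of the specific-binding displacement curve.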

[2] = target: T2, human serotonin transporters (Homo sapiens, UniProt P31645); assay: Serotonin transporter binding assay ([3H]-citalopram competition, HEK-hSERT cell membranes)
T2 construct: expressed in transfected cells
T2 sequence (P31645 whole entry): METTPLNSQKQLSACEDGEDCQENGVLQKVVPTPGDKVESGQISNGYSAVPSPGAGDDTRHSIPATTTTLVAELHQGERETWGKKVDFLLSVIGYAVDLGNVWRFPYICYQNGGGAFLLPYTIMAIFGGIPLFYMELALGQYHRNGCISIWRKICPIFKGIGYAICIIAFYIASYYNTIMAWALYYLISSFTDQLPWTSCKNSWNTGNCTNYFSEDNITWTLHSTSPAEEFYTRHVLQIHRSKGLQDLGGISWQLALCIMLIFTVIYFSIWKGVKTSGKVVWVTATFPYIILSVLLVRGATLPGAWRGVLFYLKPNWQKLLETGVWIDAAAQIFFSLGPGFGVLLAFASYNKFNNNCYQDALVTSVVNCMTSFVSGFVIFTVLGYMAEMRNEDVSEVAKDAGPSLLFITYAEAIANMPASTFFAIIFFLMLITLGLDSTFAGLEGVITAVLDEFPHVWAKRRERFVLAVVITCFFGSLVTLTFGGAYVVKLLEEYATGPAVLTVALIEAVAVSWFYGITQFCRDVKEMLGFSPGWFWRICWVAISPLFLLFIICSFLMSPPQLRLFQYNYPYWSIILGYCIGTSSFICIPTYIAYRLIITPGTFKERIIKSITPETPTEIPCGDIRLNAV
Method in brief: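 Membranes from HEK-293 cells stably expressing hSERT incubated 1 hr at 25 °C with 1 nM [3H]-citalopram and test compound in 50 mM Tris pH 7.4, 120 mM NaCl, 5 mM KCl; filtration read-out. Nonspecific binding: 10 μM fluoxetine. IC50 from displacement curve; Ki via Cheng–Prusoff.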

[3] = Table 1, HEK-hSERT membranes, [3H]-citalopram displacement, read-out: SERT IC50
[4] = Table 2, HEK-hSERT membranes, [3H]-citalopram displacement, read-out: SERT IC50

SMILES: Cc1nnnn1-c1cc(COCC2(c3ccccc3)CCNCC2)cc(C(F)(F)F)c1
- IC50 ([1]; Table 1): 100 to 300 nM
- IC50 [2, 3]: 0.01 to 100 nM

SMILES: Cc1cc(-c2cc(COCC3(c4cccnc4)CCN(C)CC3)cc(C(F)(F)F)c2)ccc1C#N
- IC50 ([1]; Table 2): 0.01 to 100 nM
- IC50 [2]: 0.01 to 100 nM

SMILES: FC(F)(F)c1cc(COCC2(c3ccccc3)CCNCC2)cc(-c2cc(C(F)(F)F)cc(C(F)(F)F)c2)c1
- IC50 ([1]; Table 1): 100 to 300 nM
- IC50 [2, 3]: 100 to 300 nM

SMILES: FC(F)(F)c1cc(COCC2(c3ccccc3)CCNCC2)cc(-c2cccc(OCc3ccccc3)c2)c1
- IC50 ([1]; Table 2): 0.01 to 100 nM
- IC50 [2, 4]: 0.01 to 100 nM

SMILES: CC(OCC1(c2ccccc2)CCNCC1)c1cc(Cl)cc(-c2ccc(C#N)cc2)c1 (stereo not shown)
- IC50 ([1]; Table 2): 0.01 to 100 nM
- IC50 [2, 4]: 0.01 to 100 nM

SMILES: CC(C)(C)c1ccc(-c2cc(COCC3(c4ccccc4)CCNCC3)cc(C(F)(F)F)c2)cc1
- IC50 ([1]; Table 1): > 300 nM
- IC50 [2, 3]: > 300 nM

SMILES: N#Cc1ccc(-c2cc(COCC3(c4ccc(Br)cc4)CCNCC3)cc(C(F)(F)F)c2)cc1
- IC50 ([1]; Table 2): 0.01 to 100 nM
- IC50 [2, 4]: 0.01 to 100 nM

SMILES: FC(F)(F)c1cc(COCC2(c3ccccc3)CCNCC2)cc(-c2ccc(C3CCNCC3)nc2)c1
- IC50 ([1]; Table 2): > 300 nM
- IC50 [2, 4]: 0.01 to 100 nM

SMILES: Fc1cc(-c2cc(COCC3(c4ccccc4)CCNCC3)cc(C(F)(F)F)c2)ccc1-c1ccccc1
- IC50 ([1]; Table 1): > 300 nM
- IC50 [2, 3]: 0.01 to 100 nM

SMILES: CN1CCN(c2cc(-c3cc(COCC4(c5ccccc5)CCNCC4)cc(C(F)(F)F)c3)ccn2)CC1
- IC50 ([1]; Table 1): > 300 nM
- IC50 [2, 3]: 100 to 300 nM

SMILES: O=C(Nc1ccc(-c2cc(COCC3(c4ccccc4)CCNCC3)cc(C(F)(F)F)c2)cc1)OCc1ccccc1
- IC50 ([1]; Table 2): 0.01 to 100 nM
- IC50 [2, 4]: 0.01 to 100 nM

SMILES: CCS(=O)(=O)c1ccc(-c2cc(COCC3(c4ccccc4)CCNCC3)cc(C(F)(F)F)c2)cc1
- IC50 ([1]; Table 2): 100 to 300 nM
- IC50 [2, 4]: 0.01 to 100 nM

SMILES: CN1CCC(COCc2cc(-c3ccc(Cl)cc3)cc(C(F)(F)F)c2)(c2ccccc2)CC1
- IC50 ([1]; Table 2): 0.01 to 100 nM
- IC50 [2]: 0.01 to 100 nM

SMILES: CC(OCC1(c2ccccc2)CCNCC1)c1cc(F)cc(-c2ccc(C#N)cc2)c1 (stereo not shown)
- IC50 ([1]; Table 2): 0.01 to 100 nM
- IC50 [2, 4]: 0.01 to 100 nM

More lines, now with the values ahead:

- IC50 ([1]; Table 1): 0.01 to 100 nM
- IC50 [2, 3]: 0.01 to 100 nM
SMILES: COc1cc(-c2cc(COCC3(c4ccccc4)CCNCC3)cc(C(F)(F)F)c2)ccn1

- IC50 ([1]; Table 2): > 300 nM
- IC50 [2, 4]: 0.01 to 100 nM
SMILES: CC(C)c1ccc(-c2cc(COCC3(c4ccccc4)CCNCC3)cc(C(F)(F)F)c2)cc1

- IC50 ([1]; Table 1): 100 to 300 nM
- IC50 [2, 3]: 0.01 to 100 nM
SMILES: OCc1cccc(-c2cc(COCC3(c4ccccc4)CCNCC3)cc(C(F)(F)F)c2)c1

- IC50 ([1]; Table 1): 0.01 to 100 nM
- IC50 [2, 3]: 0.01 to 100 nM
SMILES: FC(F)(F)c1cc(COCC2(c3ccccc3)CCNCC2)cc(-c2ccc(Cl)cc2)c1

- IC50 ([1]; Table 1): 0.01 to 100 nM
- IC50 [2, 3]: 0.01 to 100 nM
SMILES: Fc1cc(F)cc(-c2cc(COCC3(c4ccccc4)CCNCC3)cc(C(F)(F)F)c2)c1

- IC50 ([1]; Table 1): 0.01 to 100 nM
- IC50 [2, 3]: 0.01 to 100 nM
SMILES: Fc1ncccc1-c1cc(COCC2(c3ccccc3)CCNCC2)cc(C(F)(F)F)c1

- IC50 ([1]; Table 2): 0.01 to 100 nM
- IC50 [2, 4]: 0.01 to 100 nM
SMILES: Cn1cc(-c2cc(COCC3(c4ccccc4)CCNCC3)cc(C(F)(F)F)c2)cn1

- IC50 ([1]; Table 2): 0.01 to 100 nM
- IC50 [2, 4]: 0.01 to 100 nM
SMILES: Fc1cc(-c2cc(COCC3(c4ccccc4)CCNCC3)cc(C(F)(F)F)c2)cc(F)c1F

- IC50 ([1]; Table 1): 100 to 300 nM
- IC50 [2, 3]: 0.01 to 100 nM
SMILES: CSc1ccccc1-c1cc(COCC2(c3ccccc3)CCNCC2)cc(C(F)(F)F)c1

- IC50 ([1]; Table 1): 0.01 to 100 nM
- IC50 [2, 3]: 0.01 to 100 nM
SMILES: Fc1cccc(-c2cc(COCC3(c4ccccc4)CCNCC3)cc(C(F)(F)F)c2)c1

- IC50 ([1]; Table 1): 0.01 to 100 nM
- IC50 [2, 3]: 0.01 to 100 nM
SMILES: COc1ncc(-c2cc(COCC3(c4ccccc4)CCNCC3)cc(C(F)(F)F)c2)cn1

- IC50 ([1]; Table 1): 0.01 to 100 nM
- IC50 [2, 3]: 0.01 to 100 nM
SMILES: COc1ccccc1-c1cc(COCC2(c3ccccc3)CCNCC2)cc(C(F)(F)F)c1

- IC50 ([1]; Table 1): 0.01 to 100 nM
- IC50 [2, 3]: 0.01 to 100 nM
SMILES: N#Cc1cccc(-c2cc(COCC3(c4ccccc4)CCNCC3)cc(C(F)(F)F)c2)c1

- IC50 ([1]; Table 2): 0.01 to 100 nM
- IC50 [2, 4]: 0.01 to 100 nM
SMILES: Fc1ccc(F)c(-c2cc(COCC3(c4ccccc4)CCNCC3)cc(C(F)(F)F)c2)c1

- IC50 ([1]; Table 1): > 300 nM
- IC50 [2, 3]: 0.01 to 100 nM
SMILES: Cc1cc(C)cc(-c2cc(COCC3(c4ccccc4)CCNCC3)cc(C(F)(F)F)c2)c1

- IC50 ([1]; Table 1): 0.01 to 100 nM
- IC50 [2, 3]: 0.01 to 100 nM
SMILES: CSc1ccc(-c2cc(COCC3(c4ccccc4)CCNCC3)cc(C(F)(F)F)c2)cc1

- IC50 ([1]; Table 1): 100 to 300 nM
- IC50 [2, 3]: 0.01 to 100 nM
SMILES: FC(F)(F)c1cc(COCC2(c3ccccc3)CCNCC2)cc(-c2cccc3cccnc23)c1

- IC50 ([1]; Table 1): > 300 nM
- IC50 [2, 3]: 0.01 to 100 nM
SMILES: Cc1ccncc1-c1cc(COCC2(c3ccccc3)CCNCC2)cc(C(F)(F)F)c1

- IC50 ([1]; Table 1): 0.01 to 100 nM
- IC50 [2, 3]: 0.01 to 100 nM
SMILES: Fc1ccccc1-c1cc(COCC2(c3ccccc3)CCNCC2)cc(C(F)(F)F)c1

- IC50 ([1]; Table 1): 0.01 to 100 nM
- IC50 [2, 3]: 0.01 to 100 nM
SMILES: FC(F)(F)c1cc(COCC2(c3ccccc3)CCNCC2)cc(-c2ccc(Cl)cc2Cl)c1

- IC50 ([1]; Table 1): 0.01 to 100 nM
- IC50 [2, 3]: 0.01 to 100 nM
SMILES: COc1ccc(-c2cc(COCC3(c4ccccc4)CCNCC3)cc(C(F)(F)F)c2)cc1

Source: patent US20070249607A1, “NK-1 AND SEROTONIN TRANSPORTER INHIBITORS” (Bristol-Myers Squibb Company, priority 2006, published 2007)
